{
  "source": "patent US11135236B2",
  "about": "“Retinoic acid receptor gamma agonists to attenuate anthracycline-induced cardiotoxicity” (Northwestern University, priority 2018, dated 2021)",
  "key": {"[1]": {"tested_on": "RARG-WT hiPSC-CMs", "assay": "caspase 3 and 7 activity after 24 h doxorubicin (Caspase 3/7-Glo)", "type": "cell-based, human"}, "[2]": {"tested_on": "hiPSC-CMs", "assay": "DNA damage by γH2AX staining", "type": "cell-based, human", "settings": "patient hiPSC-CMs, 24 h doxorubicin", "procedure": "Immunofluorescent staining. hiPSCs were dissociated with 0.5 mM EDTA and plated onto Matrigel-coated Nunc Lab-Tek II 8-chamber slides in E8 medium for three days (E8Y for the first 24 h). Cells were fixed, permeabilized, and stained for POU5F1, SSEA4, SOX2, TRA-1-60 with the PSC 4-Marker Immunocytochemistry Kit (Invitrogen) according to manufacturer's instructions. Cardiomyocytes were dissociated with Liberase TH (as above) and plated onto Matrigel-coated No 1.5 coverslips as previously described and allowed to adhere and spread for 4 days. Cells were fixed with 4% paraformaldehyde (Electron Microscopy Services) in DPBS for 15 min at RT, permeabilized with 1% saponin (MilliporeSigma) in DPBS for 15 min at RT, blocked with 3% bovine serum albumin (BSA, MilliporeSigma) in DPBS for 30 min at RT, and stained overnight in 3% BSA/DPBS at 4° C. with 1:200 polyclonal rabbit IgG anti-TNNT2 (Abcam, ab45932), 1:500 monoclonal mouse IgG1 anti-ACTN2 (Sigma, A7811), 1:200 monoclonal rabbit IgG RARG (Abcam, ab187159), or 1:200 monoclonal mouse IgG1 γH2AX (MilliporeSigma, 05-636). […]\nFlow cytometry-based DNA damage assay. […] Cells were analyzed using a CytoFLEX (Beckman Coulter) with CytExpert 2.0 software and Prism 7.0 software (GraphPad)."}, "[3]": {"tested_on": "control hiPSC-CMs", "assay": "hiPSC-CM cell viability after 72 h doxorubicin (CellTiter-Glo)", "type": "cell-based, human", "quoted_text": "(§1) 384-well plate-based cell viability, caspase 3/7 activity, and reactive oxygen species (ROS) assays. […] Luminescence was measured using a VarioSkan Lux Multi-Mode Reader (Thermo Scientific) with an integration time of 0.25 sec. 10 μM staurosporine (MedChemExpress) was used as a positive control. […] 10 μM staurosporine and 50 μM menadione (both MedChemExpress) was used as a positive control, respectively. Data were analyzed using Prism 7.0 software (GraphPad) using standard dose-response guidelines."}, "[4]": {"tested_on": "RARG-OE hiPSC-CMs", "assay": "caspase 3 and 7 activity after 24 h doxorubicin (Caspase 3/7-Glo)", "type": "cell-based, human", "quoted_text": "as §1"}, "[5]": {"tested_on": "C57BL/6J Mice", "assay": "mouse model of doxorubicin-induced cardiomyopathy, echocardiography", "type": "in vivo", "settings": "doxorubicin 3 mg kg^−1 intraperitoneal twice weekly for 3 weeks", "description": "Mouse model of doxorubicin-induced cardiomyopathy and drug administration. […] For the control group, we treated mice with corn oil in the same schedule as agonist administration. We recorded an echocardiogram once a week (day 0, day 7, day 14, and day 21) and terminated the experiment at day 21. Hearts were harvested for western blot analyses as mentioned above.\nEchocardiographic evaluation. Mice were studied at baseline and weekly during the protocol under light anesthesia with isoflurane (induction 3%, maintenance 1.5%). 2D images in the parastemal short axis were obtained with a GE Vivid 7 ultrasound system (GE Healthcare) equipped with a 13 MHz transducer. Left ventricular end-systolic (LVESD) and end-diastolic (LVEDD) dimensions were measured and left ventricular fractional shortening (FS) was calculated."}, "[6]": {"tested_on": "RARG-KO hiPSC-CMs", "assay": "hiPSC-CM cell viability after 72 h doxorubicin (CellTiter-Glo)", "type": "cell-based, human", "quoted_text": "as §1"}},
  "data": [
    {"smiles": "COc1cccc2c1C(=O)c1c(O)c3c(c(O)c1C2=O)C[C@@](O)(C(=O)CO)C[C@@H]3O[C@H]1C[C@H](N)[C@H](O)[C@H](C)O1", "note": "[doxorubicin]", "values": [
      {"measurement": "LD50, caspase 3 and 7 activity", "setting": "[1]", "result": 0.683, "unit": "µM"},
      {"measurement": "DNA damage (γH2AX)", "setting": "[2]", "result": "concentration-dependent increase in DNA damage"},
      {"measurement": "half-maximal lethal dose (LD50), cell viability", "setting": "[3]", "result": 2.622, "unit": "µM"},
      {"measurement": "LD50, caspase 3 and 7 activity", "setting": "[4]", "result": 1.83, "unit": "µM"},
      {"measurement": "cardiac function, as assessed by fractional shortening", "setting": "[5]", "result": "steady decline in cardiac function"},
      {"measurement": "LD50, cell viability", "setting": "[6]", "result": 1.582, "unit": "µM"}
    ]}
  ]
}
